US7745641B2, “Nitrogen-containing heterocyclic compound” (Kyowa Hakko Kirin Co., Ltd., priority 2005, dated 2010)

What was measured:
leukemia-transplant mice = details: drugs that act on Flt-3; cited from earlier work
[1] = several evaluation models; drugs reported to act on FGFR; cited from earlier work
human FGFR3 = biological target: T1, human FGFR3 (Homo sapiens, UniProt P22607); test: Fibroblast growth factor receptor 3 (FGFR3) inhibitory activity, time-resolved fluoroimmunoassay; type: biochemical; details: 10 μmol/L test compound
T1 construct: the intracellular domain (448-759 amino acids) of human FGFR3; made in house; host or cells: insect cells (baculovirus)
T1 sequence (P22607 448-759): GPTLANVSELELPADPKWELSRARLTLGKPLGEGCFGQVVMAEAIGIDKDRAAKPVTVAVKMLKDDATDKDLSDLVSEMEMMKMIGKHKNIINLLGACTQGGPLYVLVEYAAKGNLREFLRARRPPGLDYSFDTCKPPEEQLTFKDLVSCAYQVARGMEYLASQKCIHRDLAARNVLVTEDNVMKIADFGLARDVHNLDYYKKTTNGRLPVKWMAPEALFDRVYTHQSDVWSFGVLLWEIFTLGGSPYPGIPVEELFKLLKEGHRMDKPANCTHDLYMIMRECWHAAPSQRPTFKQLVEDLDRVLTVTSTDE
Experimental: In order to determine FGFR3 inhibitory activity, the following method was employed. FGFR3 was prepared by allowing baculovirus that expresses a protein in which glutathione S-transferase (GST) was fused to the N-terminal of the intracellular domain (448-759 amino acids) of human FGFR3 to infect insect cells. Biotinylated polyglutamic acid-tyrosine peptide (Nihon Schering K.K., Catalogue No. 61GT0BAA) used as a substrate was immobilized on a 96-well plate coated with NeutroAvidin (Pierce, Catalogue No. 31000) and was then blocked with 0.25% gelatin to yield a plate for the determination of kinase reaction A solution containing, at final concentrations, 8 μg/L GST-fused FGFR3 protein, 20 mmol/L Tris-Cl (pH 7.5), 0.04% 2-mercaptoethanol, 0.04 mmol/L Na3VO4, 20 mmol/L MgCl2, 5 mmol/L MnCl2, 10 mmol/L ATP, 0.1% bovine serum albumin (BSA; Sigma Corporation, Catalogue No. A4503), 0.1% dimethyl sulfoxide (DMSO), and 10 μmol/L test compound was prepared. Subsequently, 50 μL of the solution was placed in each of the wells of the plate for the determination of kinase reaction, followed by enzymatic reaction at 24° C. for 60 minutes. The plate was washed with TBS-T [10 mM Tris-Cl (pH 7.5), 150 mmol/L NaCl, and 0.05% Tween 20 (Bio-Rad Laboratories Inc., Catalogue No. 170-6531)] four times, and allowed to react with europium-labeled anti-phosphotyrosine antibody (PerkinElmer Inc. Catalogue No. AD0160) at room temperature for 60 minutes. The plate was further washed with TBS-T four times. Subsequently, DELFIA. Enhancement Solution (PerkinElmer Inc. Catalogue No. 1244-105) was added to the plate, and time-resolved fluoroimmunoassay was performed (excitation wavelength: 340 nm, measuring wavelength: 615 nm). The relative activity (%) of a well in which the test compound was added was calculated using the value of a well containing the enzyme and 0.1% DMSO being 100% and the value of a well not containing the enzyme being 0%. The FGFR3 inhibitory activity (%) of the test compound was determined by subtracting the relative activity (%) from 100.

Aurora = Aurora inhibitory activity using Western blotting method (phosphorylation of histone H3 Ser10); type: cell-based, human; details: 10 μmol/L, 30 minutes, HCT116 cells accumulated in M phase with Nocodazole
Text: It is known that Aurora phosphorylates Ser10 of histone H3 in the G2/M phase during the cell cycle [Molecular and Cellular Biology, Vol. 22, p. 874 (2002)]. Consequently, the inhibition of phosphorylation of histone H3 Ser10 in cells was detected by a Western blotting method using human colon cancer cell line HCT116 cells accumulated in the M phase. McCoy's 5A culture medium (GIBCO, Catalogue No. 16600-082) containing 10% bovine fetus serum (GIBCO, Catalogue No. 10099-141) was used for the cultivation of the cells. The HCT116 cells were inoculated and then treated with Nocodazole (Sigma Corporation, Catalogue No. M-1404) so that the cell cycle was accumulated to the M phase. A test compound (final concentration: 10 μmol/L) was added thereto, and the cells were incubated at 37° C. for 30 minutes. The cells were then recovered and washed with a phosphate buffered saline (PBS) once. The cells were suspended in a cell-solubilizing solution (50 mmol/L 2-[4-(2-hydroxyethyl)-1-piperazinyl]ethanesulfonic acid (HEPES) (pH 7.4), 150 mmol/L NaCl, 1 mmol/L ethylenediamine-N,N,N′,N′-tetraacetic acid disodium salt dihydrate (EDTA), 2.5 mmol/L ethylene glycol bis(2-aminoethylether)-N,N,N′,N′-tetraacetic acid (EGTA), 0.1% Tween-20 (Bio-Rad Laboratories Inc., Catalogue No. 170-6531), 10% β-glycerophosphate, 1 mmol/L NaF, 0.1 mmol/L Na3VO4, 1 mmol/L Pefabloc SC (Roche Diagnostics K.K., Catalogue No. 1 429 868), and Complete EDTA-free (Roche Diagnostics K.K., Catalogue No. 1 873 580)}, and the suspension was frozen and thawed. Subsequently, the supernatant obtained by centrifugal separation was used as a cell extraction solution. SDS-PAGE was performed using a 12.5% polyacrylamide gel under the condition that the amount of protein per sample was 30 μg in accordance with the method used by Laemmli et al. The protein was transferred onto a PVDF membrane (Millipore Corporation, Catalogue No. IPVH304F0) by a semi-dry method. The membrane was allowed to react with anti-phosphorylated histone H3 Ser10 antibody (Upstate Inc., Catalogue No. 06-570) used as a primary antibody, and an HRP-labeled anti-rabbit IgG antibody (Amersham biosciences, Catalogue No. NA934V) used as a secondary antibody. Subsequently, […] was detected using a SuperSignal West Pico chemiluminescence substrate (Pierce, Catalogue No. 34077).

HCT116 cells = test: Evaluation of Aurora inhibitory activity by analysis of nuclear morphology (enlarged lobed nuclei); type: cell-based, human; details: concentration in the range of 0.1 to 1 μmol/L, 17 hours contact; optimal concentration different in each compound
Experimental: 281 (2003)]. Consequently, enlarged lobed nuclei-inducibility of test compounds for HCT116 cells was evaluated. McCoy's 5A culture medium (GIBCO, Catalogue No. 16600-082) containing 10% bovine fetus serum (GIBCO, Catalogue No. 10099-141) was used for the cultivation of the cells. HCT116 cells were inoculated and, 24 hours later, each test compound was added thereto.

Flt-3 = biological target: T2, Flt-3 (Homo sapiens, UniProt P36888); test: Flt-3 inhibitory activity, time-resolved fluoroimmunoassay; type: biochemical; details: 10 μmol/L test compound
T2 construct: His tag; purchased Upstate Inc. 14-500
T2 sequence (P36888 564-993 limits assumed): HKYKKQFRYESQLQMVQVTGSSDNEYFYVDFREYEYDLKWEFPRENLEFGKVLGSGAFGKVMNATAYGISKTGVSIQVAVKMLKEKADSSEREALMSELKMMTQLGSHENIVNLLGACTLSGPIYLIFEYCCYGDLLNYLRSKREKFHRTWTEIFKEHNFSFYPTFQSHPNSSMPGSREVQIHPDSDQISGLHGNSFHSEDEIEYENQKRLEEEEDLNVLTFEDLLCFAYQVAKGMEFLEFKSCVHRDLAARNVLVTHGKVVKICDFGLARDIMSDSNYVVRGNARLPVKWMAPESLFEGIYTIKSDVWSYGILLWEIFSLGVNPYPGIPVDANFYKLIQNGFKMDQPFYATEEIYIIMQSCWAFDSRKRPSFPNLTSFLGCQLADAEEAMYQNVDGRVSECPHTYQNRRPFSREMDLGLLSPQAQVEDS
Experimental: Flt-3 inhibitory activity was determined by a method described below.
Biotinylated polyglutamic acid-tyrosine peptide (Nihon Schering K.K., Catalogue No. 61GT0BAA) used as a substrate was immobilized on a 96-well plate (FIA-PLATE BLACK 96 well FALT-BOTTOM HIGH BINDING, Greiner Bio-one Co., Ltd., Catalogue No. 655077) coated with NeutroAvidin (Pierce, Catalogue No. 31000) and was then blocked with 0.25% gelatin to yield a plate for the determination of kinase reaction. A solution containing, at final concentrations, 8 μg/L His-tagged protein-fused Flt-3 (Upstate Inc., Catalogue No. 14-500), 20 mmol/L Tris-Cl (pH 7.5), 0.04% 2-mercaptoethanol, 0.04 mmol/L Na3VO4, 20 mmol/L MgCl2, 5 mmol/L MnCl2, 10 μmol/L ATP, 0.1% BSA, 0.1% DMSO, and […] test compound was prepared. Subsequently, 50 μL of the solution was placed in each of the wells of the plate for the determination of kinase reaction, followed by enzymatic reaction at 24° C. for 60 minutes. The plate was washed with TBS-T [10 mmol/L Tris-Cl (pH 7.5), 150 mmol/L NaCl, and 0.05% Tween 20 (Bio-Rad Laboratories Inc., Catalogue No. 170-6531)] four times, and allowed to react with europium-labeled anti-phosphotyrosine antibody (PerkinElmer Inc. Catalogue No. AD0160) at room temperature for 60 minutes. The plate was further washed with TBS-T four times. Subsequently, time-resolved fluoroimmunoassay was performed (excitation wavelength: 340 nm, measuring wavelength: 615 nm). The relative activity (%) of a well to which the enzyme and the test compound were added was calculated using the value of a well to which the test compound was not added being 100% and the value of a well to which the enzyme and the test compound were not added being 0%. The Flt-3 inhibitory activity (%) of the test compound was determined by subtracting the relative activity (%) from 100.

[2] = tested on: human-tumor-transplant mouse models; details: cited from earlier work

C[C@]12O[C@H](C[C@]1(O)CO)n1c3ccccc3c3c4c(c5c6ccccc6n2c5c31)CNC4=O [CEP-701]
antitumor activity (leukemia-transplant mice): exhibit an antitumor activity

CN1CCN(c2ccc3nc(-c4c(N)c5c(F)cccc5[nH]c4=O)[nH]c3c2)CC1 [CHIR-258]
antitumor activity (leukemia-transplant mice): exhibit an antitumor activity | antitumor activity [1]: exhibit an antitumor activity

COc1cc2c(N3CCN(C(=O)Nc4ccc(OC(C)C)cc4)CC3)ncnc2cc1OCCCN1CCCCC1 [CT53518]
antitumor activity (leukemia-transplant mice): exhibit an antitumor activity

CN(C)CCN1CCN(C(=O)c2ccc3[nH]c(-c4ccc(Cl)c5c4C(=O)NC5)cc3c2)CC1 [Compound 112, 4-Chloro-7-{1H-5-[4-(2-dimethylaminoethyl)piperazin-1-ylcarbonyl]indol-2-yl}isoindolinone]
melting point: 271 to 272 °C

COc1cc(-c2cc3cc(CN(C)C)ccc3[nH]2)c2c(c1OS(C)(=O)=O)CNC2=O [Compound 362, 4-Methanesulfonyloxy-5-methoxy-7-[1H-5-(dimethylaminomethyl)indol-2-yl]isoindolinone]
inhibition at 10 µM (human FGFR3): ≥ 50% | suppression of the phosphorylation of histone H3 Ser10 in HCT116 cells (Aurora): almost completely suppressed | ability of inducing enlarged lobed nuclei for HCT116 cells (HCT116 cells): show ability of inducing enlarged lobed nuclei | inhibition at 10 µM (Flt-3): ≥ 50% | melting point: 232 to 234 °C

COc1cc(-c2cc3cc(CNC4CCCCC4)ccc3[nH]2)c2c(c1OS(C)(=O)=O)CNC2=O [Compound 365, 4-Methanesulfonyloxy-5-methoxy-7-[1H-5-(cyclohexylaminomethyl)indol-2-yl]isoindolinone]
melting point: 196 to 199 °C

COc1cc(-c2cc3cc(CN4CCCC4)ccc3[nH]2)c2c(c1OS(C)(=O)=O)CNC2=O [Compound 366, 4-Methanesulfonyloxy-5-methoxy-7-[1H-5-(pyrrolidin-1-ylmethyl)indol-2-yl]isoindolinone]
inhibition at 10 µM (human FGFR3): ≥ 50% | suppression of the phosphorylation of histone H3 Ser10 in HCT116 cells (Aurora): almost completely suppressed | ability of inducing enlarged lobed nuclei for HCT116 cells (HCT116 cells): show ability of inducing enlarged lobed nuclei | inhibition at 10 µM (Flt-3): ≥ 50% | melting point: 187 to 189 °C

COCCNCc1ccc2[nH]c(-c3cc(OC)c(OS(C)(=O)=O)c4c3C(=O)NC4)cc2c1 [Compound 374, 4-Methanesulfonyloxy-5-methoxy-7-[1H-5-(2-methoxyethylaminomethyl)indol-2-yl]isoindolinone]
inhibition at 10 µM (human FGFR3): ≥ 50% | suppression of the phosphorylation of histone H3 Ser10 in HCT116 cells (Aurora): almost completely suppressed | ability of inducing enlarged lobed nuclei for HCT116 cells (HCT116 cells): show ability of inducing enlarged lobed nuclei | inhibition at 10 µM (Flt-3): ≥ 50% | melting point: 188 to 190 °C

COCCN(C)Cc1ccc2[nH]c(-c3cc(OC)c(OS(C)(=O)=O)c4c3C(=O)NC4)cc2c1 [Compound 455, 4-Methanesulfonyloxy-5-methoxy-7-{1H-5-[N-(2-methoxyethyl)methylaminomethyl]indol-2-yl}isoindolinone]
inhibition at 10 µM (human FGFR3): ≥ 50% | suppression of the phosphorylation of histone H3 Ser10 in HCT116 cells (Aurora): almost completely suppressed | ability of inducing enlarged lobed nuclei for HCT116 cells (HCT116 cells): show ability of inducing enlarged lobed nuclei | inhibition at 10 µM (Flt-3): ≥ 50% | melting point: 197 to 199 °C

Nc1nc(Nc2ccc(S(N)(=O)=O)cc2)nn1C(=O)c1c(F)cccc1F [JNJ-7706621]
antitumor activity [2]: exhibits an antitumor activity

CCN(CC)CCCCNc1ncc2cc(-c3cc(OC)cc(OC)c3)c(NC(=O)NC(C)(C)C)nc2n1 [PD173074]
antitumor activity [1]: exhibit an antitumor activity

CO[C@@H]1[C@H](N(C)C(=O)c2ccccc2)C[C@H]2O[C@]1(C)n1c3ccccc3c3c4c(c5c6ccccc6n2c5c31)C(=O)NC4 [PKC412]
antitumor activity (leukemia-transplant mice): exhibit an antitumor activity | antitumor activity [1]: exhibit an antitumor activity

Cc1c[nH]c(/C=C2\C(=O)Nc3ccccc32)c1CCC(=O)O [SU5402]
antitumor activity [1]: exhibit an antitumor activity

CCN(CC)CCNC(=O)c1c(C)[nH]c(/C=C2\C(=O)Nc3ccc(F)cc32)c1C [SU11248]
antitumor activity (leukemia-transplant mice): exhibit an antitumor activity

BIBF1000
antitumor activity [1]: exhibit an antitumor activity
